Experimental findings from patent publication US10669284B2, “Fused thiazolopyrimidine derivatives as MNKS inhibitors” (LIFEARC, priority 2015, dated 2020) are described below.

In assay [1] the target is T1, Full-length human MNK2 (Homo sapiens, UniProt Q9HBH9, T379D).
T1 construct: GST (N); purchased Carna Biosciences 02-146; host or cells: baculovirus expression system
The experiment in a line: MNK2 biochemical IC50 assay (Caliper Mobility Shift Assay).

In assay [2] the target is BLK (Homo sapiens, UniProt P51451). The experiment in a line: Kinase selectivity screen BLK. The conditions noted are these: read-out: % inhibition of BLK.
The target in assay [3] is ALK (Homo sapiens, UniProt Q9UM73). The experiment in a line: Kinase selectivity screen ALK. The conditions noted are these: read-out: % inhibition of ALK.
In assay [4] the target is RAF1 (Homo sapiens, UniProt P04049). Kind of assay: Kinase selectivity screen RAF1. The conditions noted are these: read-out: % inhibition of RAF1.
For assay [5], the target named is EGFR (Homo sapiens, UniProt P00533). The experiment in a line: Kinase selectivity screen EGFR. The following applies: read-out: % inhibition of EGFR.
Assay [6] deals with STK10 (Homo sapiens, UniProt O94804). The experiment in a line: Kinase selectivity screen STK10. The conditions noted are these: read-out: % inhibition of STK10.
The target of assay [7] is IGF1R (Homo sapiens, UniProt P08069). Kind of assay: Kinase selectivity screen IGF1R. The conditions noted are these: read-out: % inhibition of IGF1R.
Assay [8] concerns the target FGFR1 (Homo sapiens, UniProt P11362). Kind of assay: Kinase selectivity screen FGFR1. The following applies: read-out: % inhibition of FGFR1.
Assay [9] has as its target FGFR4 (Homo sapiens, UniProt P22455). The experiment in a line: Kinase selectivity screen FGFR4. The conditions noted are these: read-out: % inhibition of FGFR4.
In assay [10] the target is ROCK2 (Homo sapiens, UniProt O75116). The experiment in a line: Kinase selectivity screen ROCK2. The following applies: read-out: % inhibition of ROCK2.
The target in assay [11] is NTRK1 (Homo sapiens, UniProt P04629). The experiment in a line: Kinase selectivity screen NTRK1. The conditions noted are these: read-out: % inhibition of NTRK1.
In assay [12] the target is CAMK2B (Homo sapiens, UniProt Q13554). Kind of assay: Kinase selectivity screen CAMK2B. The conditions noted are these: read-out: % inhibition of CAMK2B.
Assay [13] concerns the target PIK3CG (Homo sapiens, UniProt P48736). The experiment in a line: Kinase selectivity screen PIK3CG. The following applies: read-out: % inhibition of PIK3CG.
Assay [14] deals with RPS6KA5 (Homo sapiens, UniProt O75582). The experiment in a line: Kinase selectivity screen RPS6KA5. The following applies: read-out: % inhibition of RPS6KA5.
The target in assay [15] is RPS6KB1 (Homo sapiens, UniProt P23443). The experiment in a line: Kinase selectivity screen RPS6KB1. The following applies: read-out: % inhibition of RPS6KB1.
The target in assay [16] is T2, PIP4K2A (Homo sapiens, UniProt P48426).
T2 sequence (P48426 1-406): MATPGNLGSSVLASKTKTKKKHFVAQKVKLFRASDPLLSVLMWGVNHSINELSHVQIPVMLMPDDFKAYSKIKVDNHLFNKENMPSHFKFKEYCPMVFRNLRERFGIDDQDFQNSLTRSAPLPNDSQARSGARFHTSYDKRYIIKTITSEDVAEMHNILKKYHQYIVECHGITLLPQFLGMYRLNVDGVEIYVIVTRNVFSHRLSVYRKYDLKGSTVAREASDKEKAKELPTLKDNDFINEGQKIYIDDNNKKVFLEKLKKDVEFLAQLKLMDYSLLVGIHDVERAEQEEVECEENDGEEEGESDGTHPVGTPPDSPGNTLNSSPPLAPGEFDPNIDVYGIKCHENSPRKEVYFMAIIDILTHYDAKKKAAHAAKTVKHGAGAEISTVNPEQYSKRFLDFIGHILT
Kind of assay: Kinase selectivity screen PIP4K2A. The conditions noted are these: read-out: % inhibition of PIP4K2A.

Chain of CAMK2B (Q13554 whole entry, species assumed): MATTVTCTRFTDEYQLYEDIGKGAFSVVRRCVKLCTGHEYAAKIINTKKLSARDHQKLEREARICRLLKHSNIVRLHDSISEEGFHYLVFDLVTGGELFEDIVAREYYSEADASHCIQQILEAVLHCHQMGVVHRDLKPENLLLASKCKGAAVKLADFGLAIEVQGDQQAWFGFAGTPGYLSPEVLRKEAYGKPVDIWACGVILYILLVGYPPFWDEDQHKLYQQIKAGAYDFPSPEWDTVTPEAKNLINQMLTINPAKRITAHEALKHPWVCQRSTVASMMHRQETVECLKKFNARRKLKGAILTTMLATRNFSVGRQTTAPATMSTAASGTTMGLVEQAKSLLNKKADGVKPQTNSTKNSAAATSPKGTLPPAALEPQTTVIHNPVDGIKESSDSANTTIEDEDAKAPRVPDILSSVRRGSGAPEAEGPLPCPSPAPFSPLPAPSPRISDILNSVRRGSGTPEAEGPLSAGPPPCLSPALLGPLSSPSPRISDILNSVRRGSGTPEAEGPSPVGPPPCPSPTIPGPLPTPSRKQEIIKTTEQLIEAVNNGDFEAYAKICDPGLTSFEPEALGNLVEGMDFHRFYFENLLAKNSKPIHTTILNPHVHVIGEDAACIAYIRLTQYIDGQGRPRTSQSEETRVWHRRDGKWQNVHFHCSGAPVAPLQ
Chain of EGFR (P00533 25-1210): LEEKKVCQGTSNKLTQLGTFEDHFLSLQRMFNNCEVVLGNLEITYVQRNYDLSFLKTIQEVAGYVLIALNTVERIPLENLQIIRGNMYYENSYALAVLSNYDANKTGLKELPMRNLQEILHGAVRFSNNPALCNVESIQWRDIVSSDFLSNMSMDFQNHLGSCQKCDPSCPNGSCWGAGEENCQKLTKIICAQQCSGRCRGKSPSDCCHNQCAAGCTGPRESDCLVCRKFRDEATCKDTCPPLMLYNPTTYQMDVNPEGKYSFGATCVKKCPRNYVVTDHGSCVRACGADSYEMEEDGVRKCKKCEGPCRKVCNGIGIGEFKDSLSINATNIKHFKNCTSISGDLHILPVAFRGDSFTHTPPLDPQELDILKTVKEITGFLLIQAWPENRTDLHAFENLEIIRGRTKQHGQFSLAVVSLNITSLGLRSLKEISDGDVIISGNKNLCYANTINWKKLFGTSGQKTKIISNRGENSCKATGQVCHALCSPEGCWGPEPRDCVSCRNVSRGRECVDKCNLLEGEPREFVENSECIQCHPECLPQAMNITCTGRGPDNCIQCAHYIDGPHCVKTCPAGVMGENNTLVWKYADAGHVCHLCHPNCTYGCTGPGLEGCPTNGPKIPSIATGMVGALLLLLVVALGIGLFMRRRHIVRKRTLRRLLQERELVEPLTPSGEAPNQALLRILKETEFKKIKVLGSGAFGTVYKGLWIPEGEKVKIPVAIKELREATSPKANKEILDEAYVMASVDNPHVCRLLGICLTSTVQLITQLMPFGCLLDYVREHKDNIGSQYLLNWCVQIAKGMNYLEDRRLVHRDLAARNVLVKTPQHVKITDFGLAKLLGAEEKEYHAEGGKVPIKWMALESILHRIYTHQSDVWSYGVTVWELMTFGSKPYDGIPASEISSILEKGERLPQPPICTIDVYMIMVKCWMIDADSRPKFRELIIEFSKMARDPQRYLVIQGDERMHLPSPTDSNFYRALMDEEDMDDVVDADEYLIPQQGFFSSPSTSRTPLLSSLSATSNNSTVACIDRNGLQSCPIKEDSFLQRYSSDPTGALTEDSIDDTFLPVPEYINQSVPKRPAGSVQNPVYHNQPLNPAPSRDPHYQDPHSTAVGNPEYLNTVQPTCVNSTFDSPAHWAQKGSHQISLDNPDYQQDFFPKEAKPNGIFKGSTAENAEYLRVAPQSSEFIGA
Chain of NTRK1 (P04629 33-796, species assumed): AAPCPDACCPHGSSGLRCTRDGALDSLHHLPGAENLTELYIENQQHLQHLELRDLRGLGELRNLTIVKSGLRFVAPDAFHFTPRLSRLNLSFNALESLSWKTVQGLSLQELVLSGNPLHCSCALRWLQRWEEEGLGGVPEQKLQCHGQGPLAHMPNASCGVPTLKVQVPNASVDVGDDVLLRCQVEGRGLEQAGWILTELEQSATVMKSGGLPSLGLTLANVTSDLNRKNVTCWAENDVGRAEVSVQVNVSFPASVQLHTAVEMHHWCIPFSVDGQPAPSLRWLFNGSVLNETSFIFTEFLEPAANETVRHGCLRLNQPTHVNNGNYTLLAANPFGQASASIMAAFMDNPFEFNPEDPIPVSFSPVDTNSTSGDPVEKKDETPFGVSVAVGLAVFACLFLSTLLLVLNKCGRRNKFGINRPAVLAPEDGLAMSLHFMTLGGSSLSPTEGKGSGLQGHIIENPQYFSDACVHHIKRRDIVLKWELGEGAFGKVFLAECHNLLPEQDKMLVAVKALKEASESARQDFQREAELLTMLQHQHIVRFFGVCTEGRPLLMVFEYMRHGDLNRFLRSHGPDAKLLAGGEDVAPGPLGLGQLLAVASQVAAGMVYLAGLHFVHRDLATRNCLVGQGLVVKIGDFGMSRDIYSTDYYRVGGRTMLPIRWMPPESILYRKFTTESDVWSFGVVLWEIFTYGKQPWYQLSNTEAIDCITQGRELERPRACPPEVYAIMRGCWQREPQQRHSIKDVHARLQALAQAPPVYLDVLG
Chain of IGF1R (P08069 31-1367): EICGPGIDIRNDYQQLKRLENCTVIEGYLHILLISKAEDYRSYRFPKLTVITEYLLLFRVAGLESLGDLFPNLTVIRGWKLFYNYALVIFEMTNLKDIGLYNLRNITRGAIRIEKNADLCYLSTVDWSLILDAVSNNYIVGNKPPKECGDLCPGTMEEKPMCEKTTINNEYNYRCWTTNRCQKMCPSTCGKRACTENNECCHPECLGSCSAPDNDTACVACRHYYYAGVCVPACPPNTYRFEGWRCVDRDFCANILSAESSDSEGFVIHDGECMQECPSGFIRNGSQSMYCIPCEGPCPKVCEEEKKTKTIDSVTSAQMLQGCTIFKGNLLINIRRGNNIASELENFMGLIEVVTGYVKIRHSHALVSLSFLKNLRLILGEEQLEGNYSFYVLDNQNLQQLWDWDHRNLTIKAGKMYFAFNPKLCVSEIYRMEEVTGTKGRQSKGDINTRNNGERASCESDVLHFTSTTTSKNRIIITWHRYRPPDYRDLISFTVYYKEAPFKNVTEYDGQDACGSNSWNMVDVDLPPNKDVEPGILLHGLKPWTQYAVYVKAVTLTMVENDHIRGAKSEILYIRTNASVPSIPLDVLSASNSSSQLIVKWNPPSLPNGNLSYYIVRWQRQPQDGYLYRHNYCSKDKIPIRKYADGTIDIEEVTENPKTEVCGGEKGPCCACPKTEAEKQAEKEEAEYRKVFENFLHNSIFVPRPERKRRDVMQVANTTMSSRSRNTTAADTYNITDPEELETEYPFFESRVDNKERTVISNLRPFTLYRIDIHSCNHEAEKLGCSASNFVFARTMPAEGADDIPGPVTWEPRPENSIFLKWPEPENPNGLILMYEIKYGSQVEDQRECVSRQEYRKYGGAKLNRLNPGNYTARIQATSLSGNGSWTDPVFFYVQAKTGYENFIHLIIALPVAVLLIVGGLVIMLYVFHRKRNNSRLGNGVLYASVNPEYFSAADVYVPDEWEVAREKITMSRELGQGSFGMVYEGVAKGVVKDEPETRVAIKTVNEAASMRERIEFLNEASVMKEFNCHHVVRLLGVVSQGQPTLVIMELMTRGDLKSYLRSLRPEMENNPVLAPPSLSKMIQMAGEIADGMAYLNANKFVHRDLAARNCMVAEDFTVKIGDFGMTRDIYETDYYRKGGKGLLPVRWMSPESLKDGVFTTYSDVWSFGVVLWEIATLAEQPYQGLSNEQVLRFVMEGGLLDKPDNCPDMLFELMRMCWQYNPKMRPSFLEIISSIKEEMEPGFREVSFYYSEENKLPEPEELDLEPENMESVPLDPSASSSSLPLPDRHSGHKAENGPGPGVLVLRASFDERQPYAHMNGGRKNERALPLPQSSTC
Chain of RAF1 (P04049 whole entry, species assumed): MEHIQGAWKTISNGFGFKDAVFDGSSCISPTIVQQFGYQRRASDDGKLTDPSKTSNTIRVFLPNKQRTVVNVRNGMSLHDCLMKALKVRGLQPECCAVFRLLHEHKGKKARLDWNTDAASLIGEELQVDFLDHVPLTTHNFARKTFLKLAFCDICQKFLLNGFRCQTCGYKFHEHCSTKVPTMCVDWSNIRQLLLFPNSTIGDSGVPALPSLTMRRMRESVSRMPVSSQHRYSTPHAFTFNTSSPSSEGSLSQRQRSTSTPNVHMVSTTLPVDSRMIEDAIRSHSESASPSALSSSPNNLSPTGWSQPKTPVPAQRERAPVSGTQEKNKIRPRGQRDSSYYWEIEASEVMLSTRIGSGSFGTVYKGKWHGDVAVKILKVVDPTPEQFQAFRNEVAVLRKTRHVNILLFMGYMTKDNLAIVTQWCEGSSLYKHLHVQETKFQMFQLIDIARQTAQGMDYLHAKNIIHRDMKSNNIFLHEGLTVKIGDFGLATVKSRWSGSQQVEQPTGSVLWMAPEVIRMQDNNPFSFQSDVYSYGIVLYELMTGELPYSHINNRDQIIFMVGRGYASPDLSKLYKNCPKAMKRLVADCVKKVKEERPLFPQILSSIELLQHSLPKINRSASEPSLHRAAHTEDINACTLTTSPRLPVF
T1 sequence (Q9HBH9 whole entry T379D): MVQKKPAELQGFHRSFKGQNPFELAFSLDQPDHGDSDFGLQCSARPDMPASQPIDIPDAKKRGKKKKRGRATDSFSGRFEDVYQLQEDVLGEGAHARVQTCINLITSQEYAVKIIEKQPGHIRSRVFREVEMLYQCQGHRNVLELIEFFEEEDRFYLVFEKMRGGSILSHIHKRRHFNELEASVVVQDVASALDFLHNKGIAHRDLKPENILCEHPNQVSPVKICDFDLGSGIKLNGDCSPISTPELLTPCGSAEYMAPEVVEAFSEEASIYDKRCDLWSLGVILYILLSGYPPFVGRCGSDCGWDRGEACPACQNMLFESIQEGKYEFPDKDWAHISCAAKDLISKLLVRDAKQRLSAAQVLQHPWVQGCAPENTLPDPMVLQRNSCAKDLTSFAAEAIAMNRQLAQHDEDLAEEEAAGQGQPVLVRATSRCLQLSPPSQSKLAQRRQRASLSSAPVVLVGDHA

One may read the IC50 as the concentration that gives 50% inhibition. As a reminder, the inhibition is how much of the control response was suppressed. As to `O=C(NCC1CCNCC1)c1nc2c(N3CCc4cc(F)ccc43)ncnc2s1` [Example 58, 7-(5-fluoroindolin-1-yl)-N-(4-piperidylmethyl)thiazolo[5,4-d]pyrimidine-2-carboxamide], the IC50 in assay [1] was 3.98 nM. Moreover, the inhibition at 1 µM in assay [2] amounted to 0%; in [3], 7%; in assay [4] it was 1%; in [5], 0%; in assay [6] it was 71%; in assay [7] it was 11%. Also, the inhibition at 1 µM stood at 0% in assay [8]; 10% in [9]; 8% in assay [10]; 0% in assay [11]; 17% in assay [12]; 0% in assay [13]. Besides, the inhibition at 1 µM was 0% in [14], 0% in assay [15] and 7% in assay [16].

As for `CN(C)CCCNC(=O)c1nc2c(N3CCc4cc(F)ccc43)ncnc2s1` [Example 64, N-[3-(dimethylamino)propyl]-7-(5-fluoroindolin-1-yl)thiazolo[5,4-d]pyrimidine-2-carboxamide], the IC50 in assay [1] is 2 nM. Further, the inhibition at 1 µM in [2] worked out at 1%; in [3], 3%; in assay [4], 0%; in [5], 5%; in assay [6], 81%; in assay [7], 0%. The inhibition at 1 µM in assay [8] was 2%; in assay [9] it was 0%; in assay [10], 18%; in assay [11] it was 5%; in [12] it was 57%; in [13], 3%. Besides, the inhibition at 1 µM in assay [14] was 24%; in assay [15], 0%; in [16], 0%.

For the compound `CC(C)Oc1cc(F)ccc1Nc1ncnc2sc(C(=O)NCC3CCNCC3)nc12` [Example 10, 7-(4-fluoro-2-isopropoxy-anilino)-N-(4-piperidylmethyl)thiazolo[5,4-d]pyrimidine-2-carboxamide], in assay [1], the half-maximal inhibitory concentration (IC50) was 50.1 nM. Besides, the inhibition at 1 µM is 18% in assay [2]; 10% in [3]; 0% in [4]; 0% in [5]; 28% in assay [6]; 12% in [7]. Besides, the inhibition at 1 µM in [8] was determined as 1%; in assay [9], 0%; in assay [10], 1%; in [11], 10%; in [12], 2%; in [13], 6%. Besides, the inhibition at 1 µM is 0% in assay [14], 0% in assay [15] and 12% in assay [16].
